≈ marks a conversion by molar mass, not a printed value. Read-outs that look alike come from different tables or passages of the source.
Key:
Type in all cases: cell-based
Candida albicans = assay: Minimum inhibitory concentration (MIC100), CLSI M38-A2 broth dilution
Experimental: Several strains of Aspergillus flavus, Aspergillus fumigatus, and Candida albicans were tested. Trichophyton rubrum MYA4498 and T. mentagrophytes MYA4439, the QC isolates approved by the Clinical and Laboratory Standards Institute (CLSI) for dermatophyte susceptibility testing, can also be tested.
(§1) MIC testing was performed according to the CLSI M38A2 standard for the susceptibility testing of dermatophytes developed at the Center for Medical Mycology (See, Ghannoum et al., 2004, J Clin Microbial. 42(7): 2977-2979 CLSI, Reference Method for Broth Dilution Antifungal Susceptibility Testing of Filamentous Fungi: Approved Standard-Second Edition. CLSI document M38-A2 [ISBN 1-56238-668-9]. CLSI, 940 West Valley Road, Suite 1400, Wayne, Pa. 19087-1898 USA, 2008). Briefly, RPMI was the test medium, incubation temperature and time was 35° C. and 24 hours or 48 hours, respectively, and the inoculum size was 1-3×10^3 conidia/ml. The MIC endpoint was 100% inhibition as compared to the growth control.
The MIC range, MIC100 (defined as the minimum concentration required to inhibit 100% of the isolates tested), for the antifungal preparations of the invention and comparators was computed. The MFC range, MFC50, MFC90, and MFC100 for the antifungal preparations of the invention and comparators can also be computed.
Similarly, the lowest concentration (μg/mL) of a fluconazole formulation of the invention was compared to flucanozole alone that is required to inhibit 100% growth of various isolates of Candida albicans (MIC100) was determined (see Table 14). In this example, the fluconazole formulation of the invention comprises fluconazole formulated with a phosopholipid and a surfactant.

Aspergillus fumigatus = assay: MIC100 of voriconazole and terbinafine formulation individually and in combination, FICI; settings: for MIC100, Combination: concentration of the agent when voriconazole and terbinafine formulation are used in combination; for MIC: Aspergillus fumigatus, agent used individually, read-out: MIC100, Individual
Experimental: as §1
(§2) The lowest concentration (μg/mL) of either a terbinafine formulation of the invention or voriconazole, when used in combination, that is required to inhibit 100% of various isolates of Aspergillus flavus and Aspergillus fumigatus (MIC100) was determined (see Table 15). In this example, the terbinafine formulation of the invention comprises terbinafine formulated with a phospholipid and a surfactant.
(§3) Depicted in Table 15, the Fractional Inhibitory […] Index (FWD measures the degree of interaction between the two antifungal agents. A FICI value of greater than 4 indicates an antagonistic interaction; a FICI value of between 0.5 and 4 indicates no interaction; and a FICI value of less than 0.5 indicates a synergistic interaction. As depicted in Table 15, a lower concentration of either voriconazole or terbinafine formulation is generally able to inhibit 100% growth of various isolates of Aspergillus fumigatus and Aspergillus flavus when both antifungal agents are used in combination than the concentration required to inhibit 100% growth of various isolates of Aspergillus fumigatus and Aspergillus flavus when either voriconazole or terbinafine formulation is used individually.

Aspergillus flavus = assay: as above; settings: for MIC100, Combination: concentration of the agent when voriconazole and terbinafine formulation are used in combination; for MIC: Aspergillus flavus, agent used individually, read-out: MIC100, Individual
Experimental: as §1, §2, §3

[1] = A. fumigatus strain MRL No. 2456
[2] = A. fumigatus strain MRL No. 2471
[3] = A. fumigatus strain MRL No. 2574
[4] = A. fumigatus strain MRL No. 16627
[5] = A. fumigatus strain MRL No. 16629

With `OC(Cn1cncn1)(Cn1cncn1)c1ccc(F)cc1F` [Flucanozole, fluconazole] the MIC (Candida albicans; C. albicans strain MRL No. 648) was over 64 µg/mL, the MIC (Candida albicans; C. albicans strain MRL No. 9650) was over 128 µg/mL and the MIC (Candida albicans; C. albicans strain MRL No. 9698) was 32 µg/mL (≈ 104 µM). For the same molecule, the MIC (Candida albicans; C. albicans strain MRL No. 14461) was 0.25 µg/mL (≈ 0.816 µM) and the MIC (Candida albicans; C. albicans strain MRL No. 14465) was 0.25 µg/mL (≈ 0.816 µM).
For `C[C@@H](c1ncncc1F)[C@](O)(Cn1cncn1)c1ccc(F)cc1F` [Voriconazole, voriconazole], the “MIC100, Combination” value (Aspergillus fumigatus; [1]) was 0.06 µg/mL, the “MIC100, Combination” value (Aspergillus fumigatus; [2]) was 0.06 µg/mL and the “MIC100, Combination” value (Aspergillus fumigatus; [3]) was 0.06 µg/mL. The “MIC100, Combination” value (Aspergillus fumigatus; [4]) was 0.03 µg/mL, the “MIC100, Combination” value (Aspergillus fumigatus; [5]) was 0.03 µg/mL and the MIC (Aspergillus fumigatus; [1]) was 0.12 µg/mL. It also gave an MIC (Aspergillus fumigatus; [2]) of 0.25 µg/mL, an MIC (Aspergillus fumigatus; [3]) of 0.25 µg/mL and an MIC (Aspergillus fumigatus; [4]) of 0.5 µg/mL. For the same molecule, the MIC (Aspergillus fumigatus; [5]) was 0.12 µg/mL, the “MIC100, Combination” value (Aspergillus flavus; A. flavus strain MRL No. 17842) was 0.12 µg/mL and the “MIC100, Combination” value (Aspergillus flavus; A. flavus strain MRL No. 18736) was 0.12 µg/mL. The “MIC100, Combination” value (Aspergillus flavus; A. flavus strain MRL No. 18743) was 0.12 µg/mL, the “MIC100, Combination” value (Aspergillus flavus; A. flavus strain MRL No. 18744) was 0.03 µg/mL and the MIC (Aspergillus flavus; A. flavus strain MRL No. 17842) was 0.25 µg/mL. It also gave an MIC (Aspergillus flavus; A. flavus strain MRL No. 18736) of 0.5 µg/mL, an MIC (Aspergillus flavus; A. flavus strain MRL No. 18743) of 0.5 µg/mL and an MIC (Aspergillus flavus; A. flavus strain MRL No. 18744) of 0.8 µg/mL.

Source: US20120245107A1, “METHODS OF REDUCING THE PROLIFERATION AND VIABLILITY OF MICROBIAL AGENTS” (Targeted Delivery Technologies Limited, priority 2009, published 2012)
